Measurements as given in ChEMBL document CHEMBL5380875, “Discovery of a Potent and Oral Available Complex I OXPHOS Inhibitor That Abrogates Tumor Growth and Circumvents MEKi Resistance” (J Med Chem, 2023).
Activity calls are given as the source filed them. The calls are words filed in the database; no cut-off is given here.

Tests used:
NCI-H441 [1] = test: Inhibition of mitochondrial respiration in human NCI-H441 cells with high-OXPHOS assessed as reduction in basal oxygen consumption rate incubated for 12 hrs by seahorse XF96 flux analyzer; format: functional, cell-based; conditions: dose 50-200 nM
NCI-H460 [2] = test: Inhibition of mitochondrial complex I NADH-ubiquinone oxidoreductase in human NCI-H460 cells assessed as reduction in NAD+/NADH ratio at 1 uM incubated for 12 hrs by WST-8 method relative to control; format: cell-based
[3] = Tmax in ICR mouse at 1 mg/kg, iv measured for 24 hrs by LC-MS/MS analysis; format: ADME, organism-based; conditions: in vivo
NCI-H460 [4] = test: Antiproliferative activity against human NCI-H460 cells with high-OXPHOS assessed as reduction in cell viability incubated for 5 days by CellTiter 96 cell proliferation assay; format: functional, cell-based; conditions: NCI-H460, 120 h
[5] = Toxicity in mouse xenografted with human NCI-H460 cells with high-OXPHOS assessed as pathological changes in heart at 30 mg/kg, po bid administered for 18 days by H and E staining based analysis; format: organism-based; conditions: in vivo, 432 h, time 18 day
NCI-H441 [6] = test: Induction of apoptosis in human NCI-H441 cells with high-OXPHOS assessed as early apoptotic cells at 30 nM incubated for 48 hrs by Annexin V-FITC/propidium iodide staining based flow cytometry analysis (reference value: 1.67%); format: functional
[7] = AUC (0 to infinity) in ICR mouse at 10 mg/kg, po measured for 24 hrs by LC-MS/MS analysis; format: ADME, organism-based; design: dose 10 mg/kg, time 24 hrs, route po; conditions: in vivo
NCI-H441 [8] = test: Inhibition of colony formation in human NCI-H441 cells with high-OXPHOS incubated for 7 days by crystal violet staining based analysis; format: functional, cell-based; conditions: dose 250-1000 nM, time 7.0 day
NCI-H460 [9] = test: Induction of apoptosis in human NCI-H460 cells with high-OXPHOS harboring KRAS Q61H mutant assessed as late apoptotic cells at 20 nM incubated for 72 hrs in presence of trametinib by Annexin V-FITC/propidium iodide staining based flow cytometry analysis (reference value: 5.68%); format: functional
NCI-H441 [10] = test: Inhibition of mitochondrial respiration in human NCI-H441 cells with high-OXPHOS assessed as reduction in spare oxygen consumption rate capacity incubated for 12 hrs by seahorse XF96 flux analyzer; format: functional, cell-based; conditions: dose 50-200 nM
[11] = AUC (0 to 24 hrs) in ICR mouse at 1 mg/kg, iv measured for 24 hrs by LC-MS/MS analysis; format: ADME, organism-based; design: time 24 hrs, dose 1 mg/kg, route iv; conditions: in vivo
[12] = Toxicity in mouse xenografted with human NCI-H460 cells with high-OXPHOS assessed as reduction in body weight at 30 mg/kg, po bid administered for 18 days; format: organism-based; conditions: in vivo, 432 h, time 18 day
A549 [13] = test: Inhibition of colony formation in human Trametinib-resistant A549 cells with high-OXPHOS harboring KRAS G12S mutant incubated for 10 to 14 days in presence of trametinib by crystal violet staining based analysis; format: functional, cell-based; conditions: time 10-14 day
A549 [14] = test: Inhibition of mitochondrial respiration in human Trametinib-resistant A549 cell assessed as reduction in maximal oxygen consumption rate at 50 to 200 nM incubated for 12 hrs by seahorse XF96 flux analyzer; format: functional, cell-based; conditions: dose 50-200 nM
NCI-H460 [15] = test: Potentiation of trametinib-induced cytotoxicity against human NCI-H460 cells with high-OXPHOS harboring KRAS Q61H mutant assessed as reduction in cell viability at 10 to 20 uM incubated for 72 hrs by CellTiter 96 cell proliferation assay; format: functional, cell-based; conditions: dose 10-20 µM
[16] = Toxicity in mouse xenografted with human NCI-H460 cells with high-OXPHOS assessed as pathological changes in kidney at 30 mg/kg, po bid administered for 18 days by H and E staining based analysis; format: organism-based; conditions: in vivo, 432 h, time 18 day
Cytochrome P450 1A2 = molecular target: T1, Cytochrome P450 1A2 (Homo sapiens, UniProt P05177); test: Inhibition of CYP1A2 in human liver microsomes; format: ADME, Microsome
T1 sequence (P05177 whole entry): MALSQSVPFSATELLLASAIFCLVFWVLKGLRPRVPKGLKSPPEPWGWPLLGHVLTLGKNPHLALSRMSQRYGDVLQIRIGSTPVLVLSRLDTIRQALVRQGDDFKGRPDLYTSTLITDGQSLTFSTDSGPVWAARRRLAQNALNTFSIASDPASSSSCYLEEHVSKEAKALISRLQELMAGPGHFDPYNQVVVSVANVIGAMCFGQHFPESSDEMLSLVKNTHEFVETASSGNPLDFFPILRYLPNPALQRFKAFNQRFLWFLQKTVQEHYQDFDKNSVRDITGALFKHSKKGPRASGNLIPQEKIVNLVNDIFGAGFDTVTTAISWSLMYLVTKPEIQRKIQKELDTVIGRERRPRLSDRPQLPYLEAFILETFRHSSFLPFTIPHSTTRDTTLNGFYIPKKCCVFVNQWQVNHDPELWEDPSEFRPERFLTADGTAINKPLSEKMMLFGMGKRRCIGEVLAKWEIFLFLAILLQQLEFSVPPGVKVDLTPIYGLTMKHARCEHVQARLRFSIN

A549 [17] = test: Inhibition of mitochondrial respiration in human Trametinib-resistant A549 cell assessed as reduction in basal oxygen consumption rate at 50 to 200 nM incubated for 12 hrs by seahorse XF96 flux analyzer; format: functional, cell-based; conditions: dose 50-200 nM
A549 [18] = test: Induction of apoptosis in human Trametinib-resistant A549 cells with high-OXPHOS harboring KRAS G12S mutant assessed as late apoptotic cells at 20 nM incubated for 72 hrs by Annexin V-FITC/propidium iodide staining based flow cytometry analysis (reference value: 4.27%); format: functional
NCI-H460 [19] = test: Inhibition of colony formation in human NCI-H460 cells with high-OXPHOS incubated for 7 days by crystal violet staining based analysis; format: functional, cell-based; conditions: dose 250-1000 nM, time 7.0 day
NCI-H441 [20] = test: Inhibition of colony formation in human NCI-H441 cells with high-OXPHOS harboring KRAS G12V mutant incubated for 10 to 14 days in presence of trametinib by crystal violet staining based analysis; format: functional, cell-based; conditions: time 10-14 day
NCI-H460 [21] = test: Inhibition of mitochondrial respiration in human NCI-H460 cells with high-OXPHOS assessed as reduction in maximal oxygen consumption rate incubated for 12 hrs by seahorse XF96 flux analyzer; format: functional, cell-based; conditions: dose 50-200 nM
[22] = Cmax in ICR mouse at 1 mg/kg, iv measured for 24 hrs by LC-MS/MS analysis; format: ADME, organism-based; design: dose 1 mg/kg, time 24 hrs, route iv; conditions: in vivo
[23] = Oral bioavailability in ICR mouse at 10 mg/kg measured for 24 hrs by LC-MS/MS analysis; format: ADME, organism-based; conditions: in vivo
A549 [24] = test: Antiproliferative activity against human Trametinib-resistant A549 cells with high-OXPHOS assessed as reduction in cell viability incubated for 5 days by CellTiter 96 cell proliferation assay; format: functional, cell-based; conditions: A549, 120 h
[25] = Toxicity in mouse xenografted with human NCI-H460 cells with high-OXPHOS assessed as pathological changes in spleen at 30 mg/kg, po bid administered for 18 days by H and E staining based analysis; format: organism-based; conditions: in vivo, 432 h, time 18 day
[26] = Toxicity in mouse xenografted with human NCI-H460 cells with high-OXPHOS assessed as pathological changes in liver at 30 mg/kg, po bid administered for 18 days by H and E staining based analysis; format: organism-based; conditions: in vivo, 432 h, time 18 day
A549 [27] = test: Induction of apoptosis in human Trametinib-resistant A549 cells with high-OXPHOS harboring KRAS G12S mutant assessed as late apoptotic cells at 20 nM incubated for 72 hrs in presence of trametinib by Annexin V-FITC/propidium iodide staining based flow cytometry analysis (reference value: 4.31%); format: functional

## Cc1c(C(=O)N2CCN(Cc3ccc(OCC(F)(F)F)cc3)CC2)nnn1Cc1ccc(C(=O)Nc2ccc(C(F)(F)F)cc2)nc1
NCI-H441 [1]
  inhibition: Dose-Dependent Effect
NCI-H460 [2]
  inhibition: 87.5%
[3]
  Tmax: 4.8 min
NCI-H460 [4]
  IC50: 0.005 µM
[5]
  Activity: Non-Toxic
NCI-H441 [6]
  Activity: 7.88%
[7]
  AUC(0-inf): 2300 ng·h/mL
NCI-H441 [8]
  inhibition: Dose-Dependent Effect
NCI-H460 [9]
  Activity: 34.1%
NCI-H441 [10]
  inhibition: Dose-Dependent Effect
[11]
  AUC(0-t) at 24 h: 337 ng·h/mL
[12]
  Activity: Non-Toxic
A549 [13]
  inhibition: Active
A549 [14]
  inhibition: Active
NCI-H460 [15]
  Activity: Active
[16]
  Activity: Non-Toxic
Cytochrome P450 1A2
  IC50: > 50 µM
A549 [17]
  inhibition: Active
A549 [18]
  Activity: 7.45%
NCI-H460 [19]
  inhibition: Dose-Dependent Effect
NCI-H441 [20]
  inhibition: Active
NCI-H460 [21]
  inhibition: Dose-Dependent Effect
[22]
  Cmax: 425 ng/mL
[23]
  bioavailability: 64.3%
A549 [24]
  IC50: 0.0151 µM
[25]
  Activity: Non-Toxic
[26]
  Activity: Non-Toxic
A549 [27]
  Activity: 43.4%
